# Test results: ChEMBL document CHEMBL2157953, “Identification of aminopyridazine-derived antineuroinflammatory agents effective in an Alzheimer's mouse model” (ACS Med Chem Lett, 2012)
# Activity calls are given as the source filed them. No cut-off for these calls is given here.
# How the values were obtained:
# BV-2 = experiment: Antineuroinflammatory activity in mouse BV2 cells assessed as inhibition of LPS-induced IL-1beta production after 16 hrs by ELISA; assay type: functional, cell-based; conditions: BV-2, 16 h
# Mus musculus [1] = experiment: Antialzheimer activity in Kunming mouse assessed as reversal of amyloid beta (1 to 42)-induced decrease of swimming percentage of path length at 2.5 mg/kg, po qd measured on day 13 by morris water maze test; assay type: functional, organism-based; parameters: dose 2.5 mg/kg
# Mus musculus [2] = experiment: Antialzheimer activity in Kunming mouse assessed as reversal of amyloid beta (1 to 42)-induced decrease of swimming time spent in target quadrant at 2.5 mg/kg, po qd measured on day 13 by morris water maze test; assay type: functional, organism-based; parameters: dose 2.5 mg/kg
# [3] = Tmax in rat brain at 2.5 mg/kg, po; assay type: ADME, organism-based; parameters: dose 2.5 mg/kg, route oral
# [4] = Oral bioavailability in rat at 2.5 mg/kg; assay type: ADME, organism-based; conditions: in vivo
# Mus musculus [5] = experiment: Antialzheimer activity in Kunming mouse assessed as reversal of amyloid beta (1 to 42)-induced impairments in spartial recognition memory at 2.5 mg/kg, po qd measured on day 3 and 4 by morris water maze test; assay type: functional, organism-based; parameters: dose 2.5 mg/kg
# Mus musculus [6] = experiment: Antialzheimer activity in Kunming mouse assessed as reversal of amyloid beta (1 to 42)-induced decrease of swimming percentage of path length at 0.656 mg/kg, po qd measured on day 13 by morris water maze test; assay type: functional, organism-based; parameters: dose 0.656 mg/kg
# Mus musculus [7] = experiment: Antialzheimer activity in Kunming mouse assessed as reversal of amyloid beta (1 to 42)-induced impairments in spartial recognition memory at 0.65 mg/kg, po qd measured on day 3 and 4 by morris water maze test; assay type: functional, organism-based; parameters: dose 0.65 mg/kg
# Mus musculus [8] = experiment: Antialzheimer activity in Kunming mouse assessed as reversal of amyloid beta (1 to 42)-induced decrease of swimming time spent in target quadrant at 0.65 mg/kg, po qd measured on day 13 by morris water maze test; assay type: functional, organism-based; parameters: dose 0.65 mg/kg
IC50 (BV-2) [µM],SMILES,other results
11.4,Cc1cc(-c2ccccc2)nnc1N1CCN(c2ncccn2)CC1,–
> 100,Cc1ccnnc1N1CCN(c2ncccn2)CC1,–
> 100,Cc1cc(C)c(N2CCN(c3ncccn3)CC2)nn1,–
76.3,Cc1cc(-c2ccc(F)cc2)nnc1N1CCN(c2ncccn2)CC1,–
33.5,Cc1cc(-c2cccc(F)c2)nnc1N1CCN(c2ncccn2)CC1,–
> 100,Cc1cc(-c2cccnc2)nnc1N1CCN(c2ncccn2)CC1,–
> 100,Cc1cc(Cl)nnc1N1CCN(c2ncccn2)CC1,–
2.6,COc1cccc(-c2cc(C)c(N3CCN(c4ncccn4)CC3)nn2)c1,–
85.1,Cc1cc(-c2ccc3[nH]ccc3c2)nnc1N1CCN(c2ncccn2)CC1,–
37.4,Cc1cc(-c2ccc(C(F)(F)F)cc2)nnc1N1CCN(c2ncccn2)CC1,–
17.2,Cc1ccc(-c2cc(C)c(N3CCN(c4ncccn4)CC3)nn2)cc1,–
24.9,Cc1cc(-c2cc3ccccc3s2)nnc1N1CCN(c2ncccn2)CC1,–
66.5,Cc1cc(-c2ccnc3ccccc23)nnc1N1CCN(c2ncccn2)CC1,–
5.2,COc1ccc(-c2cc(C)c(N3CCN(c4ncccn4)CC3)nn2)cc1,–
> 100,Cc1cc(-c2ccncc2)nnc1N1CCN(c2ncccn2)CC1,–
2.4,Cc1cc(-c2ccsc2)nnc1N1CCN(c2ncccn2)CC1,Activity (Mus musculus [1]): Active; Activity (Mus musculus [2]): Active; Tmax [3]: 19.8 min; bioavailability [4]: 17.4%; Activity (Mus musculus [5]): Active
> 100,Cc1cc(-c2cncnc2)nnc1N1CCN(c2ncccn2)CC1,–
–,COc1cc2c(cc1OC)C(=O)C(CC1CCN(Cc3ccccc3)CC1)C2 (configuration not stated),Activity (Mus musculus [6]): Active; Activity (Mus musculus [7]): Active; Activity (Mus musculus [8]): Active
> 100,Cc1cc(C(C)C)nnc1N1CCN(c2ncccn2)CC1,–
> 100,COc1ncc(-c2cc(C)c(N3CCN(c4ncccn4)CC3)nn2)c(OC)n1,–
